Square brackets hold non-standard residues; d marks the D form. Peptide text beside a SMILES is read from it. dTrp(2-Me) = Cc1[nH]c2ccccc2c1C[C@@H](N)C(=O)O
Legend:
[1] = tested on: MKR insulin-resistant mice; conditions: cited from earlier work
[2] = tested on: human subcutaneous adipocytes; assay: Transport of green fluorescent Hexarelin into primary cultures of human subcutaneous adipocytes (fluorescence microscopy); format: cell-based; conditions: green fluorescent probe, primary culture
From the text: In vitro validation of HexamiRs targeted delivery of functional miRNAs: The ability of the HexamiRs to target and deliver ss-miRNA analogs to adipocytes will evaluated in a model of primary cultures of human subcutaneous adipocytes. The first experimental step was to confirm that Hexarelin is efficiently transported into human mature adipocytes, using an in vitro protocol of primary cultures of human subcutaneous adipocytes. To test this, hexarelin labeled with a green fluorescent probe was incubated with cultured adipocytes.

[3] = tested on: human subcutaneous adipocytes; assay: Transport of green fluorescent labeled fatty acids into primary cultures of human subcutaneous adipocytes (fluorescence microscopy); format: cell-based; conditions: green fluorescent probe, primary culture
Method: In vitro validation of AdipomiRs targeted delivery of functional miRNAs: The ability of the AdipomiRs to target and deliver ss-miRNA analogs to adipocytes was evaluated in a model of primary cultures of human subcutaneous adipocytes. The first experimental step was to confirm that fatty acids are efficiently transported into human mature adipocytes, using the inventor's in vitro protocol of primary cultures of human subcutaneous adipocytes. To test this, fatty acids such as palmitic and […] acids were labeled with a green fluorescent probe and incubated with cultured adipocytes.

SMILES	glucose and insulin intolerance [1]	plasma and liver triglycerides [1]	transport of labeled hexarelin into the cytoplasm of human adipocytes [2]	transport of labeled fatty acids by human adipocytes [3]
Cc1[nH]c2ccccc2c1C[C@@H](NC(=O)[C@@H](N)Cc1cnc[nH]1)C(=O)N[C@@H](C)C(=O)N[C@@H](Cc1c[nH]c2ccccc12)C(=O)N[C@H](Cc1ccccc1)C(=O)N[C@@H](CCCCN)C(N)=O [Hexarelin, His-D-2-Me-Trp-Ala-Trp-D-Phe-Lys-NH2] (H-H[dTrp(2-Me)]AW[dF]K-NH2)	significantly improved	decreased	very efficiently transported	–
CCCCCCCCCCCCCCCC(=O)O [palmitic acid, Palmitic Acid]	–	–	–	very efficiently transported
